# Measured values reported in publication PMC8995034 (Science Translational Medicine, 2022).
# Several values for one entry are separate records, joined by “and”; a condition that tells them apart may be missing. Equal entries are not always repeated. Where two headings read alike, the source gives them in different places.
# Columns and labels:
# SARS-CoV-2 fLUC = assay: microbe, parasite or virus in culture; format: cell-based; settings: for % Inhibition (Fig1F): duplicate values; for EC50: Severe acute respiratory syndrome coronavirus 2, NHBE, 24 h, read-out: EC50, inhibition of SARS-CoV-2 replication in NHBE cultures; for Relative Light Units (RLU) (FigS1C): duplicates
# SARS-CoV-2 nLUC = assay: microbe, parasite or virus in culture; format: cell-based; settings: for inhibition at 0.00152 µM: drug 0.00152 µM; for inhibition at 0.00457 µM: drug 0.00457 µM; for inhibition at 0.01372 µM: drug 0.01372 µM; for inhibition at 0.04115 µM: drug 0.04115 µM; for inhibition at 0.37037 µM: drug 0.37037 µM; for inhibition at 3.33333 µM: drug 3.33333 µM; for Relative Light Units (RLU) (FigS1A): replicate wells
# SARS-CoV-2 = format: cell-based
# MERS-CoV = assay: microbe, parasite or virus in culture; format: cell-based; settings: Middle East respiratory syndrome-related coronavirus, Calu-3 2B4, read-out: EC50 against MERS-CoV
# [1] = tested on: alpha, beta, and gamma SARS-CoV-2 VOCs; settings: cited from earlier work
# in vitro = settings: human, % Cytotoxicity (Fig1E)
# [2] = African green monkeys; cited from earlier work
# [3] = in vivo; cited from earlier work
# in vivo = settings: BALB/c, mouse, po, 20 mg/kg
# [4] = concentration 0.222222 (unit not given)
# [5] = concentration 0.666667 (unit not given)
# [6] = concentration 2 (unit not given)
# [7] = Severe acute respiratory syndrome coronavirus 2, read-out: % Inhibition (Fig1D)
# [8] = Severe acute respiratory syndrome coronavirus 2, drug 10 µM, read-out: % Inhibition (Fig1D)
# [9] = Severe acute respiratory syndrome coronavirus 2, read-out: Average EC50 (nM) A549-hACE2
# [10] = Severe acute respiratory syndrome coronavirus 2, read-out: average half-maximum effective concentration (EC50), SARS-CoV-2 nLUC replication
smiles,measurement,setting,value
"CC(C)C(=O)OC[C@H]1O[C@@H](n2ccc(NO)nc2=O)[C@H](O)[C@@H]1O [MPV, molnupiravir, reference compound]","NHC plasma exposures, dose proportionality","MPV 30 mg/kg or 100 mg/kg oral, BID",dose proportional increases in NHC plasma exposures
CCC(CC)COC(=O)C(C)NP(=O)(OCC1OC(C#N)(c2ccc3c(N)ncnn23)C(O)C1O)Oc1ccccc1 (centres unmarked) [RDV (GS-5734)],% Inhibition (Fig1F),SARS-CoV-2 fLUC; concentration 0.024691 (unit not given),24.385% and 40.4776%
same,% Inhibition (Fig1F),SARS-CoV-2 fLUC; concentration 0.074074 (unit not given),79.3894% and 81.2356%
same,% Inhibition (Fig1F),SARS-CoV-2 fLUC; [4],99.4779% and 99.6549%
same,% Inhibition (Fig1F),SARS-CoV-2 fLUC; [5],99.9727% and 99.9783%
same,% Inhibition (Fig1F),SARS-CoV-2 fLUC; [6],99.9953% and 99.9938%
CC(C)C(=O)OCC1OC(C#N)(c2ccc3c(N)ncnn23)C(OC(=O)C(C)C)C1OC(=O)C(C)C (centres unmarked) [GS-621763],inhibition at 0.00152 µM,SARS-CoV-2 nLUC; [7],-15.2%
same,inhibition at 0.00457 µM,SARS-CoV-2 nLUC; [7],-13.7%
same,inhibition at 0.01372 µM,SARS-CoV-2 nLUC; [7],-12.3%
same,inhibition at 0.04115 µM,SARS-CoV-2 nLUC; [7],-15.7%
same,inhibition at 0.12346 µM,"SARS-CoV-2 nLUC; Severe acute respiratory syndrome coronavirus 2, drug 0.12346 µM, read-out: % Inhibition (Fig1D)",-15.4%
same,inhibition at 0.37037 µM,SARS-CoV-2 nLUC; [7],-23%
same,inhibition at 1.11111 µM,"SARS-CoV-2 nLUC; Severe acute respiratory syndrome coronavirus 2, drug 1.11111 µM, read-out: % Inhibition (Fig1D)",-42%
same,inhibition at 3.33333 µM,SARS-CoV-2 nLUC; [7],94.8%
same,inhibition at 10 µM,SARS-CoV-2 nLUC; [8],99.3%
same,EC50,SARS-CoV-2 nLUC; [9],2800 nM
same,EC50,SARS-CoV-2 nLUC; [10],2800 nM
same,Relative Light Units (RLU) (FigS1A),SARS-CoV-2 nLUC; drug 0.004 µM,1.49E+08 RLU and 1.35E+08 RLU and 1.13E+08 RLU
same,Relative Light Units (RLU) (FigS1A),SARS-CoV-2 nLUC; drug 0.04 µM,1.45E+08 RLU and 1.37E+08 RLU and 1.12E+08 RLU
same,Relative Light Units (RLU) (FigS1A),SARS-CoV-2 nLUC; drug 0.12 µM,1.47E+08 RLU and 1.37E+08 RLU and 1.32E+08 RLU
same,Relative Light Units (RLU) (FigS1A),SARS-CoV-2 nLUC; drug 0.37 µM,1.64E+08 RLU and 1.46E+08 RLU and 1.36E+08 RLU
same,Relative Light Units (RLU) (FigS1A),SARS-CoV-2 nLUC; drug 1.1 µM,1.69E+08 RLU and 1.76E+08 RLU and 1.62E+08 RLU
same,Relative Light Units (RLU) (FigS1A),SARS-CoV-2 nLUC; drug 3.3 µM,6190000 RLU and 6040000 RLU and 1.36E+07 RLU
same,Relative Light Units (RLU) (FigS1A),SARS-CoV-2 nLUC; drug 10 µM,708000 RLU and 801000 RLU and 866000 RLU
same,EC50,SARS-CoV-2 fLUC,125 nM
same,% Inhibition (Fig1F),SARS-CoV-2 fLUC; [4],65.5149% and 78.3611%
same,% Inhibition (Fig1F),SARS-CoV-2 fLUC; [5],97.4321% and 98.0439%
same,% Inhibition (Fig1F),SARS-CoV-2 fLUC; [6],99.8762% and 99.9108%
same,Relative Light Units (RLU) (FigS1C),SARS-CoV-2 fLUC; drug concentration 0.00823,7706513 RLU and 5857613 RLU
same,Relative Light Units (RLU) (FigS1C),SARS-CoV-2 fLUC; drug concentration 0.024691,7329653 RLU and 5548473 RLU
same,Relative Light Units (RLU) (FigS1C),SARS-CoV-2 fLUC; drug concentration 0.074074,5615903 RLU and 3756783 RLU
same,Relative Light Units (RLU) (FigS1C),SARS-CoV-2 fLUC; drug concentration 0.222222,2451403 RLU and 1538223 RLU
same,Relative Light Units (RLU) (FigS1C),SARS-CoV-2 fLUC; drug concentration 0.666667,182543 RLU and 139053 RLU
same,Relative Light Units (RLU) (FigS1C),SARS-CoV-2 fLUC; drug concentration 2,8803.33 RLU and 6343.33 RLU
same,antiviral activity / infectious virus titers in HAE cell cultures,SARS-CoV-2,confirmed the antiviral activity
same,antiviral activity / infectious virus titers in HAE cell cultures,SARS-CoV-2; listed as GS621763,reduces viral titers
same,EC50,MERS-CoV,740 nM
same,"antiviral activity against alpha, beta, and gamma SARS-CoV-2 VOCs",[1],potently antiviral
same,cytotoxicity,in vitro; drug 0.00152 µM,5.08%
same,cytotoxicity,in vitro; drug 0.00457 µM,2.88%
same,cytotoxicity,in vitro; drug 0.01372 µM,4.34%
same,cytotoxicity,in vitro; drug 0.04115 µM,5.67%
same,cytotoxicity,in vitro; drug 0.12346 µM,6.43%
same,cytotoxicity,in vitro; drug 0.37037 µM,7.02%
same,cytotoxicity,in vitro; drug 1.11111 µM,-1.19%
same,cytotoxicity,in vitro; drug 3.33333 µM,1.11%
same,cytotoxicity,in vitro; drug 10 µM,4.64%
same,intact ester in plasma,[2],no or very minimal intact ester observed in plasma
same,intact ester in plasma,[3],no or very minimal intact ester observed in plasma
O=c1nc(NO)ccn1[C@@H]1O[C@H](CO)[C@@H](O)[C@H]1O [NHC],"Plasma NHC, FigS5","Group 1, time 12.5, individual mice, oral MPV",48.2 μM and 56.9 μM (2×) and 55.4 μM
"CCC(CC)COC(=O)[C@H](C)N[P@](=O)(OC[C@H]1O[C@@](C#N)(c2ccc3c(N)ncnn23)[C@H](O)[C@@H]1O)Oc1ccccc1 [RDV, remdesivir, reference compound]",EC50,SARS-CoV-2 nLUC; [9],294 nM
same,EC50,SARS-CoV-2 nLUC; [10],290 nM
same,EC50,SARS-CoV-2 fLUC,37.1 nM
same,EC50,MERS-CoV,160 nM
"N#C[C@@]1(c2ccc3c(N)ncnn23)O[C@H](CO)[C@@H](O)[C@H]1O [GS-441524, reference compound]",inhibition at 0.00152 µM,SARS-CoV-2 nLUC; [7],5.76%
same,inhibition at 0.00457 µM,SARS-CoV-2 nLUC; [7],7.88%
same,inhibition at 0.01372 µM,SARS-CoV-2 nLUC; [7],0.08%
same,inhibition at 0.04115 µM,SARS-CoV-2 nLUC; [7],5.14%
same,inhibition at 0.37037 µM,SARS-CoV-2 nLUC; [7],-4.48%
same,inhibition at 3.33333 µM,SARS-CoV-2 nLUC; [7],42%
same,inhibition at 10 µM,SARS-CoV-2 nLUC; [8],99%
same,EC50,SARS-CoV-2 nLUC; [9],3370 nM
same,EC50,SARS-CoV-2 nLUC; [10],3400 nM
same,EC50,SARS-CoV-2 fLUC,2450 nM
same,% Inhibition (Fig1F),SARS-CoV-2 fLUC; concentration 0.205761 (unit not given),16.6269% and 13.9332%
same,% Inhibition (Fig1F),SARS-CoV-2 fLUC; concentration 0.617284 (unit not given),25.1934% and 32.3249%
same,% Inhibition (Fig1F),SARS-CoV-2 fLUC; concentration 1.85185 (unit not given),47.2673% and 45.1609%
same,% Inhibition (Fig1F),SARS-CoV-2 fLUC; concentration 5.55556 (unit not given),89.9387% and 91.061%
same,% Inhibition (Fig1F),SARS-CoV-2 fLUC; concentration 16.6667 (unit not given),99.9354% and 99.9435%
same,% Inhibition (Fig1F),SARS-CoV-2 fLUC; concentration 50 (unit not given),99.9909% and 99.9933%
same,EC50,MERS-CoV,2100 nM
same,half-life,in vivo,~1 h
same,cytotoxicity,in vitro; drug 0.00152 µM,4.91%
same,cytotoxicity,in vitro; drug 0.00457 µM,3.11%
same,cytotoxicity,in vitro; drug 0.01372 µM,6.91%
same,cytotoxicity,in vitro; drug 0.04115 µM,2.96%
same,cytotoxicity,in vitro; drug 0.12346 µM,5.66%
same,cytotoxicity,in vitro; drug 0.37037 µM,7.63%
same,cytotoxicity,in vitro; drug 3.33333 µM,9.21%
same,cytotoxicity,in vitro; drug 10 µM,7.34%
